According to ChEMBL document CHEMBL3352763, “Selective inhibition of human carbonic anhydrases by novel amide derivatives of probenecid: synthesis, biological evaluation and molecular modelling studies” (Bioorg Med Chem, 2014):

Experiments:
[1] = target: Carbonic anhydrase 2 (Homo sapiens, UniProt P00918); test: Inhibition of recombinant human carbonic anhydrase 2 after 15 mins by stopped flow CO2 hydration assay
[2] = target: Carbonic anhydrase 9 (Homo sapiens, UniProt Q16790); test: Inhibition of recombinant human carbonic anhydrase 9 after 15 mins by stopped flow CO2 hydration assay
[3] = target: Carbonic anhydrase 1 (Homo sapiens, UniProt P00915); test: Inhibition of recombinant human carbonic anhydrase 1 after 15 mins by stopped flow CO2 hydration assay
[4] = target: Carbonic anhydrase 12 (Homo sapiens, UniProt O43570); test: Inhibition of recombinant human carbonic anhydrase 12 after 15 mins by stopped flow CO2 hydration assay
Carbonic anhydrase 12, sequence (O43570 whole entry): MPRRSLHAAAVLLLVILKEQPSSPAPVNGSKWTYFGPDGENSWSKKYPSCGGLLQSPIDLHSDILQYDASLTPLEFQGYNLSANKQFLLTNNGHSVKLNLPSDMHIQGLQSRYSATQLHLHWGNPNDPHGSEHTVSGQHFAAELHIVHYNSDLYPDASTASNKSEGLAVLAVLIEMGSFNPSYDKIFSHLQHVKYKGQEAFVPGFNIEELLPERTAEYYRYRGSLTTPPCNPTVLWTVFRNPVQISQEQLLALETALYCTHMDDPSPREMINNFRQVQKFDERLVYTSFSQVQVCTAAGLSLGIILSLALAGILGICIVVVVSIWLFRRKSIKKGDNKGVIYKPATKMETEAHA

Carbonic anhydrase 1, sequence (P00915 whole entry): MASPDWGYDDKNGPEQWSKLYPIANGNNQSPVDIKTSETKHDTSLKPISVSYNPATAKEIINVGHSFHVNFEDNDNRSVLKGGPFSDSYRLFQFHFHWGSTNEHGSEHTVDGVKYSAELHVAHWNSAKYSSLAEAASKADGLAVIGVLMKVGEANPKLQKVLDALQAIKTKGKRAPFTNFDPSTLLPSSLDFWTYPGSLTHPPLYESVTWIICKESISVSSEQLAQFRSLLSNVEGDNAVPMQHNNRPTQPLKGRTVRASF

| Ki [1] [µM] | Ki [2] [µM] | Ki [3] [µM] | Ki [4] [µM] | Compound |
| --- | --- | --- | --- | --- |
| > 10 | 0.171 | – | – | CCCN(CCC)S(=O)(=O)c1ccc(C(=O)Nc2ccccc2)cc1 |
| > 10 | 0.228 | – | – | CCCN(CCC)S(=O)(=O)c1ccc(C(=O)Nc2ccccn2)cc1 |
| > 10 | 0.198 | – | – | CCCN(CCC)S(=O)(=O)c1ccc(C(=O)Nc2cccc(Cl)c2)cc1 |
| > 10 | 0.243 | – | – | CCCN(CCC)S(=O)(=O)c1ccc(C(=O)Nc2ccc(Cl)cc2)cc1 |
| > 10 | – | – | – | CCCN(CCC)S(=O)(=O)c1ccc(C(=O)Nc2ccccc2[N+](=O)[O-])cc1 |
| > 10 | 0.223 | – | – | CCCN(CCC)S(=O)(=O)c1ccc(C(=O)Nc2ccccc2N)cc1 |

The remaining lines, values behind:

| Compound | Ki [1] [µM] | Ki [2] [µM] | Ki [3] [µM] | Ki [4] [µM] |
| --- | --- | --- | --- | --- |
| CCCN(CCC)S(=O)(=O)c1ccc(C(=O)NC)cc1 | > 10 | 0.165 | – | – |
| CCCN(CCC)S(=O)(=O)c1ccc(C(=O)NC2CCCCC2)cc1 | > 10 | 0.234 | – | – |
| CCCN(CCC)S(=O)(=O)c1ccc(C(=O)NC2CCCCC2C)cc1 (configuration not stated) | > 10 | 0.26 | – | – |
| CCCN(CCC)S(=O)(=O)c1ccc(C(=O)NCCN2CCOCC2)cc1 | > 10 | 0.251 | – | – |
| CCCN(CCC)S(=O)(=O)c1ccc(C(=O)Nc2nncs2)cc1 | > 10 | 0.216 | – | – |
| CCCN(CCC)S(=O)(=O)c1ccc(C(=O)Nc2cccc([N+](=O)[O-])c2)cc1 | > 10 | 0.265 | – | – |
| CCCN(CCC)S(=O)(=O)c1ccc(C(=O)O)cc1 [PROBENECID] | 0.431 | 0.36 | > 10 | 1.24 |
